The record followed here is PubChem BioAssay (NCI).

“And” between values parts separate entries of the source, which are not always exact repeats. Equal entries are not always repeated.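 Compound exposure: 48 hours, 5 concentrations, 96-well plates. The concentration for 50% growth inhibition is given as GI50. TGI is the concentration that stops growth completely.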

Experiment in all cases: NCI anticancer screen, dose series, 48 h
The test system of assay [1] is SK-MEL-28 melanoma.
Assay [2] has as its system SNB-75 CNS.
In assay [3] the test system is MDA-MB-231 breast.
Assay [4] relates to SF-268 CNS.
Assay [5] deals with K-562 leukemia.
For assay [6], the system named is OVCAR-8 ovarian.
Assay [7] deals with SW-620 colon.
The test system of assay [8] is NCI-H226 lung.
The test system of assay [9] is OVCAR-4 ovarian.
Assay [10] deals with T-47D breast.

Consider `Cc1[nH]c(=O)nc(Nc2ccc(Cl)cc2)c1C(=O)N1CCN(CCO)CC1`, for which the GI50 was greater than 100 µM in assay [1]; 21.7 µM in [2]; 46.3 µM in [3]; 65 µM in [4]; greater than 100 µM in assay [5]; 72 µM in [6]. For the same compound, the GI50 in assay [7] is greater than 100 µM; in assay [8], greater than 100 µM; in assay [9], greater than 100 µM; in assay [10], 84.2 µM. Also, the TGI was greater than 100 µM in assay [1]; 52.3 µM in [2]; greater than 100 µM in assay [3]; greater than 100 µM in [4]; greater than 100 µM in assay [5]; greater than 100 µM in [6]. Also, the TGI in assay [7], in assay [8], in assay [9] and in assay [10] was greater than 100 µM in each case.

Consider `O=c1c(O)c(-c2ccc(O)c(O)c2)oc2cc(O)cc(O)c12`, for which the GI50 in assay [1] was 17.9 µM; in [2] it was 4.42 µM; in assay [3] it was 9.36 µM; in assay [4], 10.2 µM; in assay [5], 5.2 µM; in [6] it was 14.1 µM. Further, the GI50 is 26.7 µM in assay [7], 16.3 µM in assay [8], 33.3 µM in assay [9] and 23.8 µM in [10]. Further, the TGI in assay [1] is greater than 100 µM; in assay [2] it was 39.2 µM and > 100 µM; in assay [3], greater than 100 µM; in assay [4] it was 75.5 µM and > 100 µM; in [5], greater than 100 µM; in assay [6] it was greater than 100 µM. The TGI was > 100 µM and 59.8 µM in [7]; 68.5 µM in assay [8]; greater than 100 µM in assay [9]; greater than 100 µM in [10].

Regarding `Cn1cccc1-c1cc(-c2ccc(Br)cc2)[nH]c(=O)c1C#N`, the GI50 in assay [1] is greater than 100 µM; in assay [2], 25.4 µM; in [3] it was 82.5 µM; in [4], greater than 100 µM; in assay [5], greater than 100 µM; in assay [6] it was greater than 100 µM. For the same compound, the GI50 in [7], in assay [8], in assay [9] and in assay [10] was greater than 100 µM each time. Besides, the TGI in [1], in assay [2], in [3], in [4], in assay [5] and in [6] was greater than 100 µM throughout. The TGI in assay [7], in assay [8], in assay [9] and in [10] was greater than 100 µM in each case.

In the case of `COc1cc(/C=C/C(=O)c2ccc(F)cc2)ccc1OCCCN1CCN(CC(=O)Nc2ccc(Cl)cc2C(=O)c2ccccc2Cl)CC1`, the GI50 in [1] is 3.68 µM; in assay [2], 6.05 µM; in assay [3], 11.6 µM; in assay [4], 16.9 µM; in assay [5], 3.6 µM; in assay [6] it was 11.7 µM. Further, the GI50 was 2.73 µM in assay [7], 18.4 µM in [8], 9.48 µM in [9] and 21.4 µM in [10]. Moreover, the TGI in [1] was 12.6 µM; in assay [2] it was 34.1 µM; in assay [3], 27.1 µM; in assay [4], greater than 100 µM; in [5], greater than 100 µM; in [6], 68.1 µM. Besides, the TGI was 10.7 µM in [7], 37.2 µM in assay [8], 34.5 µM in assay [9] and greater than 100 µM in assay [10].

As to `Cc1cnc(CNC(=O)c2c(=O)c3ccc(N4CCCN(C)CC4)nc3n3c2sc2ccccc23)cn1`, the GI50 is 14.8 µM in assay [1]; 9.55 µM in assay [2]; 2.79 µM in assay [3]; 1.55 µM in assay [4]; 1.82 µM in [5]; 1.09 µM in assay [6]. The GI50 in assay [7] was 0.237 µM; in [8] it was 7.44 µM; in [9] it was 1.4 µM; in assay [10] it was 17.3 µM. Also, the TGI came to 30.5 µM in assay [1]; 25.8 µM in assay [2]; 8.36 µM in assay [3]; 25.6 µM in [4]; 10.6 µM in assay [5]; 21.2 µM in assay [6]. For the same compound, the TGI turned out to be 3.9 µM in assay [7], 30.8 µM in assay [8], 10.3 µM in assay [9] and 45.6 µM in assay [10].

On to `COc1ccc(/C=C(\C(=O)NCc2cccnc2)S(=O)(=O)c2ccccc2)cc1OC`, for which the GI50 in [1] is 3.06 µM; in [2] it was 2.08 µM; in [3] it was 2.93 µM; in assay [4], 3.32 µM; in assay [5], 3.33 µM; in [6] it was 3.84 µM. The GI50 in [7] was 2.95 µM; in [8], 3.13 µM; in [10], 2.59 µM. The TGI in assay [1] is 10.5 µM; in assay [2] it was 7.84 µM; in assay [3] it was 10.6 µM; in assay [4], 15.9 µM; in [5] it was greater than 100 µM; in [6] it was 25.1 µM. The values for the TGI in [7], in assay [8] and in assay [10] were 10.9 µM, 10.7 µM and 10.8 µM, respectively.

In the case of `Cc1nn(-c2ccc([N+](=O)[O-])cc2)c2ncnc(N/N=C/c3ccccc3O)c12`, the GI50 in assay [1] was 0.443 µM; in assay [2] it was 0.554 µM; in [3], 0.482 µM; in assay [4], 0.313 µM; in assay [5], 0.448 µM; in assay [8], 2.56 µM. The GI50 in [9] was 0.202 µM; in [10], 0.542 µM. Also, the TGI was 5.53 µM in [1]; 4.23 µM in [2]; 3.97 µM in assay [3]; greater than 100 µM in [4]; greater than 100 µM in [5]; greater than 26.2 µM in assay [8]. Further, the TGI in assay [9] worked out at 4.62 µM; in assay [10], 4.95 µM.

For the compound `[O-]c1ccccc1/C=N/C(/N=C/c1ccccc1[O-])c1ccccc1O.[O-]c1ccccc1/C=N/C(/N=C/c1ccccc1[O-])c1ccccc1O.[Zr+4]`, the GI50 was 17.1 µM in [1]; 3.8 µM in assay [2]; 58.2 µM in assay [3]; 28 µM in assay [4]; 44.3 µM in assay [5]; 26.7 µM in assay [6]. Also, the results for the GI50 in assay [7], in assay [9] and in [10] were 26.6 µM, 26.1 µM and 28.3 µM, respectively. Besides, the TGI was 78.2 µM in assay [1]; 61.1 µM in assay [2]; greater than 100 µM in [3]; greater than 100 µM in [4]; greater than 100 µM in assay [5]; greater than 100 µM in assay [6]. Further, the TGI in assay [7], in assay [9] and in assay [10] was greater than 100 µM in each case.
